Entries after “also recorded” stand apart in the source; their conditions may differ.
How the values were obtained:
[1] = Phase I Part 2 (multiple ascending dose study): safety and tolerability, TEAEs; format: in vivo, human
Description: The decision whether to initiate Part 2 of the study, as well as the MAD starting dose, was determined by the SMC based on review of safety data from Part 1, with PK and PD data also used to inform the decision. Dose-limiting criteria and termination/stopping rules were as per Part 1 of the study. […] Ultimately, dose levels of 25, 75, and 200 mg were selected.
Data were summarized using descriptive statistics.

[2] = Phase I Part 2: plasma pharmacokinetics Day 1 and Day 14 of once daily dosing; format: in vivo, human; settings: for MRT: human, plasma, oral
Description: To test dose proportionality, PK parameters were analyzed graphically as AUC/dose and Cmax/dose and via a power model (PK parameter=α*dose^β) approach with log-transformed PK parameters as the dependent variable and log-transformed dose as the independent variable.

[3] = Part 2, 25 mg once daily, 14 days
[4] = Part 2, 75 mg once daily, 14 days
[5] = Part 2, 200 mg once daily, 14 days
[6] = Part 2, pooled active, listed as evobrutinib
[7] = multiple-dose study Day 1, 25 mg, geometric mean
[8] = multiple-dose study Day 1, 75 mg, geometric mean
[9] = multiple-dose study Day 1, 200 mg, geometric mean
[10] = multiple-dose study Day 14, 25 mg once daily, geometric mean
[11] = multiple-dose study Day 14, 75 mg once daily, geometric mean
[12] = multiple-dose study Day 14, 200 mg once daily, geometric mean

## C=CC(=O)N1CCC(CNc2ncnc(N)c2-c2ccc(Oc3ccccc3)cc2)CC1 [Evobrutinib, 1-(4-(((6-amino-5-(4-phenoxyphenyl)pyrimidin-4-yl)amino)methyl)piperidin-1-yl)prop-2-en-1-one]
[1]; Part 2
  Relation of gastrointestinal or other TEAEs to dose: No relation to dose was observed
  Severity of TEAEs and dose-limiting adverse events: mild and no dose-limiting adverse events were reported
[1]; [3]
  Abdominal discomfort, number of TEAEs: 1
  Abdominal discomfort, subjects: 1 (11.1) n (%)
  Abdominal pain, subjects: 0 (0.0) n (%)
  Application site irritation, subjects: 0 (0.0) n (%)
  Complex regional pain, number of TEAEs: 1
  Complex regional pain, subjects: 1 (11.1) n (%)
  Constipation, subjects: 0 (0.0) n (%)
  Dry throat, subjects: 0 (0.0) n (%)
  Excoriation, number of TEAEs: 1
  Excoriation, subjects: 1 (11.1) n (%)
  Fatigue, subjects: 0 (0.0) n (%)
  Headache, number of TEAEs: 1
  Headache, subjects: 1 (11.1) n (%)
  Muscle spasms, subjects: 0 (0.0) n (%)
  Muscle strain, number of TEAEs: 1
  Muscle strain, subjects: 1 (11.1) n (%)
  Nausea, subjects: 0 (0.0) n (%)
  Overall total TEAEs, subjects: 3 (33.3) n (%)
  Overall total, number of TEAEs: 6
  Rhinorrhea, number of TEAEs: 1
  Rhinorrhea, subjects: 1 (11.1) n (%)
  Sneezing, subjects: 0 (0.0) n (%)
  Toothache, subjects: 0 (0.0) n (%)
  Upper respiratory tract infection, subjects: 0 (0.0) n (%)
[1]; [4]
  Abdominal discomfort, subjects: 0 (0.0) n (%)
  Abdominal pain, number of TEAEs: 2
  Abdominal pain, subjects: 1 (11.1) n (%)
  Application site irritation, number of TEAEs: 1
  Application site irritation, subjects: 1 (11.1) n (%)
  Complex regional pain, subjects: 0 (0.0) n (%)
  Constipation, number of TEAEs: 1
  Constipation, subjects: 1 (11.1) n (%)
  Dry throat, number of TEAEs: 1
  Dry throat, subjects: 1 (11.1) n (%)
  Excoriation, subjects: 0 (0.0) n (%)
  Fatigue, number of TEAEs: 2
  Fatigue, subjects: 2 (22.2) n (%)
  Headache, number of TEAEs: 2
  Headache, subjects: 2 (22.2) n (%)
  Muscle spasms, number of TEAEs: 1
  Muscle spasms, subjects: 1 (11.1) n (%)
  Muscle strain, subjects: 0 (0.0) n (%)
  Nausea, number of TEAEs: 2
  Nausea, subjects: 1 (11.1) n (%)
  Overall total TEAEs, subjects: 7 (77.8) n (%)
  Overall total, number of TEAEs: 14
  Rhinorrhea, subjects: 0 (0.0) n (%)
  Sneezing, number of TEAEs: 1
  Sneezing, subjects: 1 (11.1) n (%)
  Toothache, subjects: 0 (0.0) n (%)
  Upper respiratory tract infection, number of TEAEs: 1
  Upper respiratory tract infection, subjects: 1 (11.1) n (%)
[1]; [5]
  Abdominal discomfort, subjects: 0 (0.0) n (%)
  Abdominal pain, subjects: 0 (0.0) n (%)
  Application site irritation, number of TEAEs: 1
  Application site irritation, subjects: 1 (11.1) n (%)
  Complex regional pain, subjects: 0 (0.0) n (%)
  Constipation, subjects: 0 (0.0) n (%)
  Dry throat, subjects: 0 (0.0) n (%)
  Excoriation, subjects: 0 (0.0) n (%)
  Fatigue, subjects: 0 (0.0) n (%)
  Headache, subjects: 0 (0.0) n (%)
  Muscle spasms, subjects: 0 (0.0) n (%)
  Muscle strain, subjects: 0 (0.0) n (%)
  Nausea, subjects: 0 (0.0) n (%)
  Overall total TEAEs, subjects: 3 (33.3) n (%)
  Overall total, number of TEAEs: 3
  Rhinorrhea, subjects: 0 (0.0) n (%)
  Sneezing, subjects: 0 (0.0) n (%)
  Toothache, number of TEAEs: 1
  Toothache, subjects: 1 (11.1) n (%)
  Upper respiratory tract infection, number of TEAEs: 1
  Upper respiratory tract infection, subjects: 1 (11.1) n (%)
[1]; Part 2, all evobrutinib doses
  Number of gastrointestinal TEAEs: Seven
  Subjects with fatigue: 7.4%
  Subjects with gastrointestinal TEAEs: 18.5%
  Subjects with headache: 11.1%
  Subjects with skin irritation due to ECG pads: 7.4%
  Subjects with upper respiratory tract infection: 7.4%
[1]; Part 2, multiple dosing, all evobrutinib doses
  Subjects with TEAEs: 48.1%
[1]; Part 2, pooled active
  Abdominal discomfort, number of TEAEs: 1
  Abdominal discomfort, subjects: 1 (3.7) n (%)
  Abdominal pain, number of TEAEs: 2
  Abdominal pain, subjects: 1 (3.7) n (%)
  Application site irritation, number of TEAEs: 2
  Application site irritation, subjects: 2 (7.4) n (%)
  Complex regional pain, number of TEAEs: 1
  Complex regional pain, subjects: 1 (3.7) n (%)
  Constipation, number of TEAEs: 1
  Constipation, subjects: 1 (3.7) n (%)
  Dry throat, number of TEAEs: 1
  Dry throat, subjects: 1 (3.7) n (%)
  Excoriation, number of TEAEs: 1
  Excoriation, subjects: 1 (3.7) n (%)
  Fatigue, number of TEAEs: 2
  Fatigue, subjects: 2 (7.4) n (%)
  Headache, number of TEAEs: 3
  Headache, subjects: 3 (11.1) n (%)
  Muscle spasms, number of TEAEs: 1
  Muscle spasms, subjects: 1 (3.7) n (%)
  Muscle strain, number of TEAEs: 1
  Muscle strain, subjects: 1 (3.7) n (%)
  Nausea, number of TEAEs: 2
  Nausea, subjects: 1 (3.7) n (%)
  Overall total TEAEs, subjects: 13 (48.1) n (%)
  Overall total, number of TEAEs: 23
  Rhinorrhea, number of TEAEs: 1
  Rhinorrhea, subjects: 1 (3.7) n (%)
  Sneezing, number of TEAEs: 1
  Sneezing, subjects: 1 (3.7) n (%)
  Toothache, number of TEAEs: 1
  Toothache, subjects: 1 (3.7) n (%)
  Upper respiratory tract infection, number of TEAEs: 2
  Upper respiratory tract infection, subjects: 2 (7.4) n (%)
[1]; [6]
  Application site irritation, number of TEAEs: two
  Fatigue, number of TEAEs: two
  Headache, number of TEAEs: three
  Upper respiratory tract infection, number of TEAEs: two
[2]; 25-500 mg single dose, 25-200 mg once daily multiple dose
  Dose proportionality of AUC and Cmax: demonstrated following multiple dosing of 25-200 mg; also recorded: dose-proportional over a 25-500 mg single-dose range and a 25-200 mg once daily multiple-dose range
[2]; 14 days repeated daily dosing
  Time dependency of PK: no time dependency
[2]; 25 mg, multiple-dose study Day 1, 25 mg, geometric mean
  MRT: 1.66 h
[2]; 25 mg, multiple-dose study Day 14, 25 mg once daily, geometric mean
  MRT: 1.81 h
[2]; 75 mg, multiple-dose study Day 1, 75 mg, geometric mean
  MRT: 1.67 h
[2]; 75 mg, multiple-dose study Day 14, 75 mg once daily, geometric mean
  MRT: 1.79 h
[2]; 200 mg, multiple-dose study Day 1, 200 mg, geometric mean
  MRT: 1.72 h
[2]; 200 mg, multiple-dose study Day 14, 200 mg once daily, geometric mean
  MRT: 1.92 h
[2]; [7]
  AUC0−∞: 123 ng·h/mL
  Cmax: 99.7 ng/mL
  T1/2: 1.70 h
[2]; [8]
  AUC0−∞: 325 ng·h/mL
  CL/F: 3850 mL/min
  Cmax: 254 ng/mL
  T1/2: 1.86 h
[2]; [9]
  AUC0−∞: 1110 ng·h/mL
  Cmax: 797 ng/mL
  T1/2: 2.49 h
[2]; [10]
  AUC0−24h: 126 ng·h/mL
  Cmax: 80.4 ng/mL
  T1/2: 1.59 h
[2]; [11]
  AUC0−24h: 345 ng·h/mL
  Cmax: 252 ng/mL
  T1/2: 2.29 h
[2]; [12]
  AUC0−24h: 1,210 ng * h/mL
  Cmax: 782 ng/mL
  T1/2: 3.62 h
[2]; once daily, 14 days
  Accumulation with multiple dosing: no accumulation with multiple dosing; also recorded: without accumulation after multiple dosing
[2]; range across 25-200 mg once daily
  t½ after multiple dosing: 1.6 to 3.6 h

— patent US12251382B2, “Substituted amino-pyrimidine compound for use in a method for treatment and prevention of multiple sclerosis” (Merck Patent GmbH, priority 2018, dated 2025)
